Among the test systems are MDA-MB-231; SNB-75; MDA-N; T47D; IGROV-1; UACC-257; SF-268; RPMI-8226; MDA-MB-435; HOP-62; HL-60; SK-MEL-5; SK-MEL-2; PC-3; A549; NCI-H522; TK-10; COLO 205; SW-620; SK-OV-3.
Holding throughout (experiment): DTP human tumour cell line panel, 48 h

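Dose response: 5 concentrations. Exposure: 48 h. Format: 96-well plates. Endpoint: linear interpolation; highest concentration if not reached. At the GI50, growth is halved.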 Active and inactive are the calls of the source. No stated cut-off is given here; in the data, active = GI50 up to about 1.1 µM and inactive = higher.

One may read the GI50 as the concentration giving 50% growth inhibition.

Turning to `O=C(CCl)Nc1ccc(C(=O)N/N=C/c2ccc(Cl)cc2)cc1`, the GI50 in the assay with MDA-MB-231 is 1.94 µM (inactive); in the assay with SNB-75 it was 14.9 µM (inactive); with MDA-N it was 1.83 µM (inactive); with T47D, 2.51 µM (inactive); in the assay with IGROV-1, 0.728 µM (active); with UACC-257, 1.67 µM (inactive). For the same compound, the GI50 with SF-268 was 2.07 µM (inactive); with RPMI-8226, 2.42 µM (inactive); with MDA-MB-435, 1.82 µM (inactive); in the assay with HOP-62 it was 3.52 µM (inactive); in the assay with HL-60, 1.6 µM (inactive); with SK-MEL-5 it was 5.77 µM (inactive). Moreover, the GI50 is 5.58 µM (inactive) with SK-MEL-2; 2.02 µM (inactive) in the assay on PC-3; 6.07 µM (inactive) in the assay with A549; 1.75 µM (inactive) in the assay on NCI-H522; 15.9 µM (inactive) in the assay on TK-10; 0.731 µM (active) in the assay on COLO 205. The GI50 with SW-620 is 2.74 µM (inactive); in the assay on SK-OV-3 it was 3.03 µM (inactive).
For `CC(C)OC(=O)c1ccc(CCc2cc(O)c(Br)cc2O)cc1`, the GI50 with MDA-MB-231 was 12 µM (inactive); in the assay on SNB-75 it was 21 µM (inactive); with MDA-N, 9.55 µM (inactive); with T47D, 22 µM (inactive); in the assay on IGROV-1 it was 9.2 µM (inactive); in the assay with UACC-257, 13.6 µM (inactive). The GI50 was 10.1 µM (inactive) with SF-268; 2.72 µM (inactive) with RPMI-8226; 8.11 µM (inactive) in the assay with MDA-MB-435; 12.3 µM (inactive) with HOP-62; 5.85 µM (inactive) in the assay on HL-60; 15.1 µM (inactive) with SK-MEL-5. Further, the GI50 is 13.1 µM (inactive) in the assay with SK-MEL-2; 8.32 µM (inactive) with PC-3; 20.3 µM (inactive) in the assay with A549; 6.24 µM (inactive) with NCI-H522; 16.9 µM (inactive) with TK-10; 15.2 µM (inactive) in the assay on COLO 205. Besides, the GI50 is 8.65 µM (inactive) with SW-620 and 16.6 µM (inactive) in the assay with SK-OV-3.
Consider `COC(=O)C1=C(OC(=O)/C(=C/c2ccc(Cl)cc2Cl)c2ccc(Cl)cc2Cl)C(C(=O)OC)[C@@]2(O)[C@@H](C(=O)OC)[C@H](C)C[C@@H]1[C@@H]2C(=O)OC` (stereo not given in full), for which the GI50 with MDA-MB-231 was 40 µM (inactive); in the assay on SNB-75 it was > 100 µM (inactive); with MDA-N, > 100 µM (inactive); in the assay on T47D, > 100 µM (inactive); in the assay with IGROV-1 it was > 100 µM (inactive); in the assay on UACC-257 it was > 100 µM (inactive). Also, the GI50 with SF-268, with RPMI-8226, with MDA-MB-435, in the assay with HOP-62, in the assay on HL-60 and with SK-MEL-5 was > 100 µM (inactive) throughout. In addition, the GI50 in the assay on SK-MEL-2 is > 100 µM (inactive); in the assay on PC-3 it was 7.1 µM (inactive); with A549, 13.5 µM (inactive); with NCI-H522, 64.1 µM (inactive); in the assay with TK-10 it was > 100 µM (inactive); in the assay on COLO 205 it was > 100 µM (inactive). Besides, the GI50 with SW-620 and in the assay with SK-OV-3 was > 100 µM (inactive) throughout.
`CN(C)/C=N/NC(=O)/C(C#N)=C/N(C)C`: the GI50 in the assay with MDA-MB-231, with SNB-75, in the assay on MDA-N, in the assay with T47D, with IGROV-1 and with UACC-257 was > 100 µM (inactive) in each case. Also, the GI50 in the assay on SF-268, in the assay on RPMI-8226, in the assay with MDA-MB-435, with HOP-62, in the assay with HL-60 and in the assay on SK-MEL-5 was > 100 µM (inactive) each time. For the same compound, the GI50 in the assay with SK-MEL-2, in the assay on PC-3, with A549, with NCI-H522, with TK-10 and with COLO 205 was > 100 µM (inactive) in each case. For the same compound, the GI50 in the assay with SW-620 and in the assay with SK-OV-3 was > 100 µM (inactive) in each case.
